# Assay type: physicochemical
# Description: The basis for this process is illustrated for isosorbide in FIG. 1, where the upper curve represents the solubility of isosorbide in water (as percent by weight isosorbide) on the x-axis vs. temperature on the y-axis. The lower curve represents the composition of the condensate (as percent by weight isosorbide) when the condensation is conducted at a pressure of about 14 mm Hg. […] The condensate is a highly concentrated solution of isosorbide and contains only a small fraction as water. Thus, by conducting the condensation under these conditions, most of the isosorbide from, for example, a 20-30 weight percent isosorbide aqueous vapor stream is recovered, leaving most of the water in the vapor phase. The amount of isosorbide left in the vapor is negligibly small because of the very low vapor pressure of isosorbide, on the order of only about 0.001 mm Hg, at a condensation temperature of about 45° C.
structure (smiles),measurement,value
"O[C@@H]1CO[C@H]2[C@@H]1OC[C@@H]2O [isosorbide, 1,4:3,6-dianhydrosorbitol]",solubility of isosorbide in water (percent by weight isosorbide),~100%
